Results from patent publication US20220387403A1, “COMPOUNDS, COMPOSITIONS AND METHODS FOR TREATING NASH, NAFLD, AND OBESITY” (CVI Pharmaceuticals Limited, priority 2019, published 2022).
“Also recorded” adds a separate entry of the source.

Assays:
LDLR mRNA [1] = experiment: LDLR mRNA expression in HepG2 cells, semi-quantitative RT-PCR; format: cell-based, human; details: 8 hours, FIG. 3
Method: HepG2 cells obtained from American Tissue Culture Collection (Manassas, Va., USA) were seeded in 6-well culture plates at a density of 0.8×10^6 cells/well cultured in EMEM containing 0.5% FBS and were treated with each purified compound at indicated doses for 8 hours. Total RNA was isolated, and 2 μg per sample was reverse transcribed with random primers using M-MLV (Promega) at 37° C. for 1 hour. PCR was carried out at 94° C. for 30 sec, 60° C. for 30 sec, and 72° C. for 30 sec with initial activation of the enzyme at 94° C. for 1 minute. Thirty cycles were performed for LDLR and GAPDH. PCR was performed using primers HLDLR-up and HLDLR-lo for LDLR and primers HGAPDH-up and HGAPDH-lo for GAPDH. The PCR products were separated on a 1% agarose gel and the band intensity was quantitated. LDLR mRNA levels were corrected by measuring GAPDH mRNA levels.
Specific stereochemical requirements of +/−THP in the upregulation of LDLR mRNA expression were determined by a similar experiment. HepG2 cells were treated with the pure 14R-(+)-THP or the pure 14S-(−)-THP at the indicated concentrations for 24 hours. The levels of LDLR mRNA and GAPDH mRNA in untreated and the compound-treated HepG2 cells were assessed by semi-quantitative RT-PCR.

LDLR mRNA [2] = experiment: LDLR mRNA expression in HepG2 cells, quantitative real-time RT-PCR; format: cell-based, human; details: 24 hours; for Activity on LDLR mRNA at 10 uM (fold of control) / Activity on LDLR mRNA at 40 uM (fold of control): mean ± s.d.
Method: Activities of some compounds of Formulas I, II, III, and IV on LDLR mRNA expression were determined. HepG2 cells were treated with new compounds individually at a dose less than or equal to 10 μM for 24 hours. Total RNA was harvested for quantitative real-time RT-PCR analysis using the method described in Example 16B. […] In these experiments, berberine chloride was included for comparison. […]
Total RNA was harvested for quantitative real-time RT-PCR analysis using method described in Examples 16B.
(§1) The effects of 23 compounds on the mRNA expressions of LDLR and PCSK9 were examined using quantitative real-time RT-PCR assays. HepG2 cells were treated with various compounds at 10 and 40 uM concentrations for 24 hours. Total RNA was isolated and 2 μg was used to generate cDNA in a reaction containing random primers and M-MLV at 37° C. for 1 h in a volume of 25 μl. Real-time PCR was performed on the cDNA using MCEP REALPLEX 2 SYSTEM (Eppendorf) and Universal MasterMix (Applied Biosystems). Human LDLR, PCSK9, and GAPDH Pre-Developed TaqMan Assay Reagents (Applied Biosystems) were used to assess the levels of mRNA expressions in HepG2. The levels of LDLR and PCSK9 mRNA were normalized to that of GAPDH. Each RNA samples was assayed in duplicate. The fold activity was calculated by dividing mRNA abundance in compound treated cells with that of control.

PCSK9 mRNA = PCSK9 mRNA expression in HepG2 cells, quantitative real-time RT-PCR; format: cell-based, human; details: 24 hours; for Activity on PCSK9 mRNA reduction at 10 uM (fold of control) / Activity on PCSK9 mRNA reduction at 40 uM (fold of control): mean ± s.d.
Method: The time-dependent effects of compounds of Formula I, II, III, and IV on the upregulation of LDLR mRNA and the inhibition of PCSK9 mRNA expression were examined (Horton J D, Cohen J C, Hobbs H H. “Molecular biology of PCSK9: its role in LDL metabolism” TRENDS in Biochemical Sciences 2007; 32:71-77). HepG2 cells were treated with new compounds individually at 20 uM dose for 1 day, 2 day, and 3 days. Total RNA was isolated and 2 μg was used to generate cDNA in a reaction containing random primers and M-MLV at 37° C. for 1 hour in a volume of 25 μl. Real-time PCR was performed on the cDNA using MCEP REALPLEX 2 SYSTEM (Eppendorf) and Universal MasterMix (Applied Biosystems). Human LDLR, PCSK9, and GAPDH Pre-Developed TaqMan Assay Reagents (Applied Biosystems) were used to assess the levels of mRNA expressions in HepG2. The levels of LDLR mRNA or PCSK9 mRNA were normalized to that of GAPDH. Each RNA samples was assayed in triplicate. The abundance of LDLR mRNA or PCSK9 mRNA in untreated cells was defined as 1, and the amounts of LDLR mRNA or PCSK9 from compound-treated cells were plotted relative to that value (FIG. 10). The data shown are mean±s.d.
Total RNA was harvested for quantitative real-time RT-PCR analysis using method described in Examples 16B. The fold activity was derived by dividing the amount of normalized LDLR or PCSK9 mRNA in compound-treated cells over the amount of LDLR or PCSK9 mRNA in untreated control cells.
as §1

NAFLD hamster model = experiment: High fat and high cholesterol diet induced NAFLD hamster model; format: in vivo; details: 4 weeks
Method: In a high fat and high cholesterol diet (HFHCD) induced non-alcoholic fat liver disease (NAFLD) hamster model, hamsters were fed a HFHCD for two weeks then treated for 4 weeks with C128 at 10 mg/kg, 20 mg/kg and 40 mg/kg, along with fenofibrate at 50 mg/kg as a positive control. Serum lipids and liver enzymes were measured using standard techniques. Liver tissue histopathology with Oil-red O staining and H&E staining were also performed.
In a high fat and high cholesterol diet (HFHCD) induced NAFLD hamster model, hamsters were fed a HFHCD for two weeks then treated for 4 weeks with C127 at 80 mg/kg or with fenofibrate 50 mg/kg.

obese Cynomolgus monkeys = experiment: Obese Cynomolgus monkeys fed a high fat diet (DEXA scan, serum parameters); format: in vivo; details: 40 mg/kg/day PO three weeks, then 80 mg/kg/day weeks 4-6
Text: Twelve obese Cynomolgus monkeys were fed a high fat diet containing 0.5% cholesterol for 6 weeks before the treatment phase. Before the treatment with compound 127 (C127) or vehicle, all animals received a assessment of whole body and fat composition using Dual Energy X-Ray Absorptiometry (DEXA) whole body scan to measure body fat content and bone mineral density/content (reference: Black, A., Tilmont, E. M., Baer, D. J., Rumpler W. V., et. Al. Accuracy and precision of dual-energy X-ray absorptiometry for body composition measurements in rhesus monkeys. Journal of Medical Primatology, 30:94-99, 2001. Six monkeys received vehicle by PO and six monkeys received C127 at 40 mg/kg/day by PO for three weeks; from week 4-6, C127 dose was increased to 80 mg/kg/day. Dosing was ended after 6-weeks treatment, followed by DEXA scan on all animals.

NASH hamster model = experiment: Free-choice diet-induced NASH hamster model; format: in vivo; details: for NAS score / fibrosis / hepatocyte ballooning: C128 100 mg/kg, elafibranor 15 mg/kg, orally QD for 5 weeks
Method: In a free-choice diet-induced NASH hamster model, hamsters were fed a free choice diet (free choice between a chow diet with normal tap water or a high fat/cholesterol diet (Safe Diets) with 10% fructose enriched tap water) for up to 20 weeks (15 weeks diet and 5 weeks treatment). After 15 weeks of diet, hamsters were randomized into 3 homogenous groups (n=10/group) and were treated with vehicle, compound 128 (C128) at 100 mg/kg, or PPAR dual agonist elafibranor 15 mg/kg orally QD for 5 weeks. […] The study results are illustrated by FIGS. 17 to 19.

[3] = 100 mg/kg orally QD for 5 weeks

COc1cc2c(cc1OC)[C@H]1[C@@H](C)c3ccc(OC)c(OC)c3CN1CC2 [14R,13S-(+)-CRDL, 14R,13S-(+)-corydaline]
effects on LDLR mRNA expression (in words) (LDLR mRNA [1]): potent and dose-dependent effects

COc1cc2c(cc1OC)C1Cc3ccc(OC)c(OS(=O)(=O)c4ccccc4)c3CN1CC2 (centres unmarked) [Compound 91, 2,3,10-trimethoxy-5,6,7,8,13,13a-hexahydroisoquinolino[2,1-b]isoquinolin-9-yl benzenesulfonate]
LDLR mRNA expression vs concentration (in words) (LDLR mRNA [2]; FIG. 15A): dose-dependently increases | PCSK9 mRNA expression vs concentration (in words) (PCSK9 mRNA; FIG. 15B): inhibits

COc1cc2c(cc1OC)C1Cc3ccc(OC)c(OS(=O)(=O)c4cccc(F)c4)c3CN1CC2 (centres unmarked) [Compound 127, 2,3,10-trimethoxy-5,6,7,8,13,13a-hexahydroisoquinolino[2,1-b]isoquinolin-9-yl 3-fluorobenzenesulfonate]
Activity on LDLR mRNA at 10 uM (fold of control) (LDLR mRNA [2]): 1.80 ± 0.13 fold of control | Activity on LDLR mRNA at 40 uM (fold of control) (LDLR mRNA [2]): 2.38 ± 0.38 fold of control | Activity on PCSK9 mRNA reduction at 10 uM (fold of control) (PCSK9 mRNA): 0.197 ± 0.014 fold of control | Activity on PCSK9 mRNA reduction at 40 uM (fold of control) (PCSK9 mRNA): 0.192 ± 0.016 fold of control | hepatocyte lipid droplet vacuoles, cell and neutrophil infiltration (H&E) (NAFLD hamster model; C127 80 mg/kg): reduced | hypolipidemic effect (NAFLD hamster model; C127 80 mg/kg): significant hypolipidemic effect | lipid deposition in the liver (NAFLD hamster model; C127 80 mg/kg): effectively reduced | body weight, BMI and body fat (DEXA) (obese Cynomolgus monkeys): reduced | bone mineral content (DEXA) (obese Cynomolgus monkeys): improved | liver enzyme ALT (obese Cynomolgus monkeys): significant reduction | serum LDL-C, TC (obese Cynomolgus monkeys): trend in reducing

COc1ccc2c(c1)CCN1Cc3c(ccc(OC)c3OS(=O)(=O)c3cccc(F)c3)CC21 (centres unmarked) [Compound 128, 3,10-dimethoxy-5,6,7,8,13,13a-hexahydroisoquinolino[2,1-b]isoquinolin-9-yl 3-fluorobenzenesulfonate]
Activity on LDLR mRNA at 10 uM (fold of control) (LDLR mRNA [2]): 7.52 ± 0.26 fold of control | Activity on LDLR mRNA at 40 uM (fold of control) (LDLR mRNA [2]): 13.36 ± 0.46 fold of control | Activity on PCSK9 mRNA reduction at 40 uM (fold of control) (PCSK9 mRNA): 0.86 ± 0.029 fold of control | inflammation score (NASH hamster model; [3]): trend towards lower | steatosis score (NASH hamster model; [3]): trend towards lower | NAS score (NASH hamster model): significant reduction | fibrosis (NASH hamster model): significantly lowered; also recorded: not detected | hepatocyte ballooning (NASH hamster model): significantly lowered | lipid droplets in the hepatocytes and cellular inflammation (H&E) (NAFLD hamster model; 20 mg/kg and 40 mg/kg groups): alleviated to varying degrees | hepatocyte lipid droplet, hepatocyte ballooning and cellular inflammation (H&E) (NAFLD hamster model; 40 mg/kg group): significantly reduced | circulating cholesterol and triglycerides (serum TC, LDL-C, TG) (NAFLD hamster model; C128 10, 20 and 40 mg/kg): significantly reduced | diet induced elevations of liver enzymes (ALT, AST, ALP) (NAFLD hamster model; C128 10, 20 and 40 mg/kg): significantly reduced | fat accumulation in liver tissues (NAFLD hamster model; C128 10, 20 and 40 mg/kg): significantly reduced

COc1ccc2c(c1OS(=O)(=O)c1cccc(F)c1)CN1CCc3cc4c(cc3C1C2)OCCO4 (centres unmarked) [Compound 129, 11-Methoxy-6,7,8,9,14,14a-hexahydro-2H,3H-1,4-dioxano[5,6-g]isoquinolino[3,2-a]isoquinolin-10-yl 3-fluorobenzenesulfonate]
Activity on LDLR mRNA at 10 uM (fold of control) (LDLR mRNA [2]): 2.49 ± 0.18 fold of control | Activity on LDLR mRNA at 40 uM (fold of control) (LDLR mRNA [2]): 1.99 ± 0.13 fold of control | Activity on PCSK9 mRNA reduction at 10 uM (fold of control) (PCSK9 mRNA): 1.57 ± 0.07 fold of control | Activity on PCSK9 mRNA reduction at 40 uM (fold of control) (PCSK9 mRNA): 1.68 ± 0.41 fold of control

COc1ccc2c(c1OS(=O)(=O)c1cccc(F)c1)CN1CCc3cc(C)ccc3C1C2 (centres unmarked) [Compound 130, 10-Methoxy-3-methyl-5,6,7,8,13,13a-hexahydroisoquinolino[2,1-b]isoquinolin-9-yl 3-fluroobenzenesulfonate]
Activity on LDLR mRNA at 10 uM (fold of control) (LDLR mRNA [2]): 4.29 ± 0.65 fold of control | Activity on LDLR mRNA at 40 uM (fold of control) (LDLR mRNA [2]): 9.00 ± 1.49 fold of control | Activity on PCSK9 mRNA reduction at 10 uM (fold of control) (PCSK9 mRNA): 2.11 ± 0.11 fold of control

COc1cc2c(cc1OCCO)C1Cc3ccc(OC)c(OS(=O)(=O)c4ccccc4)c3CN1CC2 (centres unmarked) [Compound 143, 2-(2-hydroxyethoxy)-3,10-dimethoxy-5,6,7,8,13,13a-hexahydroisoquinolino[2,1-b]isoquinolin-9-yl benzenesulfonate]
Activity on LDLR mRNA at 10 uM (fold of control) (LDLR mRNA [2]): 1.87 ± 0.03 fold of control | Activity on LDLR mRNA at 40 uM (fold of control) (LDLR mRNA [2]): 14.97 ± 1.68 fold of control | Activity on PCSK9 mRNA reduction at 10 uM (fold of control) (PCSK9 mRNA): 1.09 ± 0.09 fold of control

CSc1ccc(C(=O)/C=C/c2cc(C)c(OC(C)(C)C(=O)O)c(C)c2)cc1 [elafibranor, reference compound]
NAS score (NASH hamster model): significant reduction | fibrosis (NASH hamster model): reduced fibrosis, although to a lesser degree | hepatocyte ballooning (NASH hamster model): reduced

CC(C)OC(=O)C(C)(C)Oc1ccc(C(=O)c2ccc(Cl)cc2)cc1 [fenofibrate, reference compound]
Body and liver weights (NAFLD hamster model; C128 10, 20 and 40 mg/kg, fenofibrate 50 mg/kg): elevated by a statistically significant amount
